According to patent publication US20100105655A1, “NOVEL COMPOUNDS 515” (ASTRAZENECA AB, priority 2008, published 2010):

Target: T1, IGFR kinase (Homo sapiens, UniProt P08069)
T1 construct: purchased Millipore
Assay: Enzyme assay (c), IGFR kinase, Caliper LabChip
Assay type: biochemical
Settings: 30 nM IGFR kinase, 6 uM ATP, 3 uM peptide mix; read-out: IGFR IC50

T1 sequence (P08069 31-1367): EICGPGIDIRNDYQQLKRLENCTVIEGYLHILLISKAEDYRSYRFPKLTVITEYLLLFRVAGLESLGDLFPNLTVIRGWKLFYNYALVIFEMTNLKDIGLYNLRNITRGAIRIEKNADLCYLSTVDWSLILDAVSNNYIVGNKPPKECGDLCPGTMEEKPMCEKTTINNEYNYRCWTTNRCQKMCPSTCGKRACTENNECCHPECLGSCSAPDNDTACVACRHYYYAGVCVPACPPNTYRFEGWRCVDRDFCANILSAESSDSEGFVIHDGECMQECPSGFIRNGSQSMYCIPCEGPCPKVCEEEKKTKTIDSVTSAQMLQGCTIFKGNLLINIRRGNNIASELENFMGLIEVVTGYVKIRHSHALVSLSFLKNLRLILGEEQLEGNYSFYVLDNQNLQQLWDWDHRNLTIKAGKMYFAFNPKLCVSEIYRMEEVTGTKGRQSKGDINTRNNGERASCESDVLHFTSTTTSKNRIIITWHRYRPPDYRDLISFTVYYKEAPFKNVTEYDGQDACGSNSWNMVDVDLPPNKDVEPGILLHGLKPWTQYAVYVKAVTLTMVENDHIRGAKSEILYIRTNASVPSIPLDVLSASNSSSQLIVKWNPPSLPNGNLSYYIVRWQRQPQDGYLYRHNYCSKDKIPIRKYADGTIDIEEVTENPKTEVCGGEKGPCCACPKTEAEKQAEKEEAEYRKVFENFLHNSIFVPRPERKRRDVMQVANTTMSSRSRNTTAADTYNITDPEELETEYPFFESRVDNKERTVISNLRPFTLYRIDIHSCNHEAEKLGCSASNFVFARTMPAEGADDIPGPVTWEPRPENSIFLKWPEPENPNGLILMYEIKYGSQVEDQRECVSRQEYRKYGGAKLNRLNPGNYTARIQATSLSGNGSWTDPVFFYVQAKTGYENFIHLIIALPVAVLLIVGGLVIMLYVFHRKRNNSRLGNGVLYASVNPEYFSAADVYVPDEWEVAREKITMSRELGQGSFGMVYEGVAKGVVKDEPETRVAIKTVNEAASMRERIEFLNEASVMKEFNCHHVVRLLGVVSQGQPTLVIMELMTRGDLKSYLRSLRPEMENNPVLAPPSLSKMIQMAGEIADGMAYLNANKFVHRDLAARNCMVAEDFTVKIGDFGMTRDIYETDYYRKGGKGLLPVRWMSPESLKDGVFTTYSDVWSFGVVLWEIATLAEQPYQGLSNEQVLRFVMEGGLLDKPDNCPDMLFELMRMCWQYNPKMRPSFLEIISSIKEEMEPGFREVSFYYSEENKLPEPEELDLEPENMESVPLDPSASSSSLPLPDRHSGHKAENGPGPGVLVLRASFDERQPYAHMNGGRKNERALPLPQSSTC

`COc1cc(N2CCN(C(=O)C(C)(C)O)CC2)ccc1Nc1ncc(Cl)c(-c2cnc3ccccn23)n1` [Example 25.6, 1-[4-[4-[(5-chloro-4-imidazo[1,2-a]pyridin-3-yl-pyrimidin-2-yl)amino]-3-methoxy-phenyl]piperazin-1-yl]-2-hydroxy-2-methyl-propan-1-one] was tested. Which IC50 did it give?
The IC50 was 11 nM.

`COc1cc(OC2CN(C[C@H](C)O)C2)ccc1Nc1ncc(Cl)c(-c2cnc3ccccn23)n1` [Example 61, (2S)-1-[3-[4-[(5-chloro-4-imidazo[1,2-a]pyridin-3-yl-pyrimidin-2-yl)amino]-3-methoxy-phenoxy]azetidin-1-yl]propan-2-ol] was tested. Which IC50 did it give?
Its IC50 is 21 nM.

Which IC50 does the source give for `COc1cc(N2CCN(C(=O)[C@@H](C)N)CC2)ccc1Nc1ncc(Cl)c(-c2cnc3ccc(F)cn23)n1` [Example 252, (2R)-2-amino-1-[4-[4-[[5-chloro-4-(6-fluoroimidazo[1,2-a]pyridin-3-yl)pyrimidin-2-yl]amino]-3-methoxy-phenyl]piperazin-1-yl]propan-1-one] here?
The IC50 was 7 nM.

For `COc1cc(N2CCN(C(=O)[C@@H](C)N)CC2)ccc1Nc1ncc(Cl)c(-c2cnc3c(F)cc(F)cn23)n1` [Example 253, (2R)-2-amino-1-[4-[4-[[5-chloro-4-(6,8-difluoroimidazo[1,2-a]pyridin-3-yl)pyrimidin-2-yl]amino]-3-methoxy-phenyl]piperazin-1-yl]propan-1-one], which IC50 is on record?
The IC50 was 4 nM.

For `CNC(=O)[C@H](C)Oc1ccc(Nc2ncc(Cl)c(-c3cnc4c(F)cccn34)n2)c(OC)c1` [Example 218, (2S)-2-[4-[[5-chloro-4-(8-fluoroimidazo[1,2-a]pyridin-3-yl)pyrimidin-2-yl]amino]-3-methoxy-phenoxy]-N-methyl-propanamide], which IC50 is on record?
The IC50 was 7 nM.

How did the IC50 turn out when `COc1cc(CNCCCO)ccc1Nc1ncc(Cl)c(-c2cnc3ccccn23)n1` [Example 21.3, 3-[[4-[(5-chloro-4-imidazo[1,2-a]pyridin-3-yl-pyrimidin-2-yl)amino]-3-methoxy-phenyl]methylamino]propan-1-ol] was run?
The IC50 was 20 nM.

For `COc1cc(N2CCCC2C(=O)N2CCOCC2)ccc1Nc1ncc(Cl)c(-c2cnc3ccccn23)n1` (stereo not shown) [Example 3.2, [1-[4-[(5-chloro-4-imidazo[1,2-a]pyridin-3-yl-pyrimidin-2-yl)amino]-3-methoxy-phenyl]pyrrolidin-2-yl]-morpholino-methanone], which IC50 is on record?
The IC50 was 54 nM.

With `COc1cc(CN2CCC(C(N)=O)CC2)ccc1Nc1ncc(Cl)c(-c2cnc3ccccn23)n1` [Example 21.7, 1-[[4-[(5-chloro-4-imidazo[1,2-a]pyridin-3-yl-pyrimidin-2-yl)amino]-3-methoxy-phenyl]methyl]piperidine-4-carboxamide] as the molecule, how does the IC50 read?
The IC50 was 31 nM.

With `COc1cc(C2CCN(C(C)=O)CC2)ccc1Nc1ncc(OC)c(-c2cnc3ccccn23)n1` [Example 94, 1-[4-[4-[(4-imidazo[1,2-a]pyridin-3-yl-5-methoxy-pyrimidin-2-yl)amino]-3-methoxy-phenyl]-1-piperidyl]ethanone] as the molecule, how does the IC50 read?
Its IC50 is 136 nM.

With `COc1ccc(N2CCN(C(=O)CN(C)C)CC2)cc1Nc1ncc(Cl)c(-c2cnn3ccccc23)n1` [Example 152, 1-[4-[3-[(5-chloro-4-pyrazolo[1,5-a]pyridin-3-yl-pyrimidin-2-yl)amino]-4-methoxy-phenyl]piperazin-1-yl]-2-(dimethylamino)ethanone] as the molecule, how does the IC50 read?
Its IC50 is 25 nM.

`COc1cc(N2CC[C@H](O)C2)ccc1Nc1ncc(F)c(-c2cnc3ccccn23)n1` [Example 83, (3S)-1-[4-[(5-fluoro-4-imidazo[1,2-a]pyridin-3-yl-pyrimidin-2-yl)amino]-3-methoxy-phenyl]pyrrolidin-3-ol] was tested. Which IC50 did it give?
The IC50 was 167 nM.

How did the IC50 turn out when `COc1cc(N2CCN(C(C)(C)CO)CC2)ccc1Nc1ncc(C)c(-c2cnn3ccccc23)n1` [Example 231, 2-[4-[3-methoxy-4-[(5-methyl-4-pyrazolo[1,5-a]pyridin-3-yl-pyrimidin-2-yl)amino]phenyl]piperazin-1-yl]-2-methyl-propan-1-ol] was run?
The IC50 was 20 nM.

Which IC50 does the source give for `COc1cc(OC2CCN(C(=O)[C@H](C)O)CC2)ccc1Nc1ncc(Cl)c(-c2cnc3ccccn23)n1` [Example 9A, (2S)-1-[4-[4-[(5-chloro-4-imidazo[1,2-a]pyridin-3-yl-pyrimidin-2-yl)amino]-3-methoxy-phenoxy]-1-piperidyl]-2-hydroxy-propan-1-one] here?
The IC50 was 18 nM.

Which IC50 does the source give for `COc1cc(N2CC3CN(C(=O)CN(C)C)CC(C2)O3)ccc1Nc1ncc(Cl)c(-c2cnc3c(F)cccn23)n1` [Example 211, 1-[3-[4-[[5-chloro-4-(8-fluoroimidazo[1,2-a]pyridin-3-yl)pyrimidin-2-yl]amino]-3-methoxy-phenyl]-9-oxa-3,7-diazabicyclo[3.3.1]nonan-7-yl]-2-(dimethylamino)ethanone] here?
Its IC50 is 19 nM.

Which IC50 does the source give for `COc1cc(N2CCN(C(C)=O)C[C@@H](O)C2)ccc1Nc1ncc(Cl)c(-c2cnc3ccccn23)n1` [Example 3.40, 1-[(6S)-4-[4-[(5-chloro-4-imidazo[1,2-a]pyridin-3-yl-pyrimidin-2-yl)amino]-3-methoxy-phenyl]-6-hydroxy-1,4-diazepan-1-yl]ethanone] here?
The IC50 was 24 nM.

For `COc1ccc(N2CC3CNCC(C2)O3)cc1Nc1ncc(Cl)c(-c2cnc3c(F)cccn23)n1` [Example 192, 5-chloro-4-(8-fluoroimidazo[1,2-a]pyridin-3-yl)-N-[2-methoxy-5-(9-oxa-3,7-diazabicyclo[3.3.1]nonan-7-yl)phenyl]pyrimidin-2-amine], which IC50 is on record?
Its IC50 is 530 nM.

How did the IC50 turn out when `COc1cc(N2CCN(C(=O)C3(O)CC3)CC2)ccc1Nc1ncc(Cl)c(-c2cnc3ccccn23)n1` [Example 22, [4-[4-[(5-chloro-4-imidazo[1,2-a]pyridin-3-yl-pyrimidin-2-yl)amino]-3-methoxy-phenyl]piperazin-1-yl]-(1-hydroxycyclopropyl)methanone] was run?
Its IC50 is 15 nM.

`COc1cc(N2CCN(CCO)CC2)ccc1Nc1ncc(C#N)c(-c2cnc3ccccn23)n1` [Example 116, 2-[[4-[4-(2-hydroxyethyl)piperazin-1-yl]-2-methoxy-phenyl]amino]-4-imidazo[1,2-a]pyridin-3-yl-pyrimidine-5-carbonitrile] was tested. Which IC50 did it give?
The IC50 was 13 nM.

`COc1ccc(N2CC[C@H](O)C2)cc1Nc1ncc(Cl)c(-c2cnc3ccccn23)n1` [Example 3.5, (3S)-1-[3-[(5-chloro-4-imidazo[1,2-a]pyridin-3-yl-pyrimidin-2-yl)amino]-4-methoxy-phenyl]pyrrolidin-3-ol] was tested. Which IC50 did it give?
The IC50 was 41 nM.

Which IC50 does the source give for `COc1cc(N2CCN(C(=O)CO)CC2)ccc1Nc1ncc(Cl)c(-c2cnn3ccccc23)n1` [Example 130, 1-[4-[4-[(5-chloro-4-pyrazolo[1,5-a]pyridin-3-yl-pyrimidin-2-yl)amino]-3-methoxy-phenyl]piperazin-1-yl]-2-hydroxy-ethanone] here?
Its IC50 is 3 nM.

Which IC50 does the source give for `COc1cc(C2CCN(C(C)=O)CC2)ccc1Nc1ncc(C2CC2)c(-c2cnc3c(F)cccn23)n1` [Example 202, 1-[4-[4-[[5-cyclopropyl-4-(8-fluoroimidazo[1,2-a]pyridin-3-yl)pyrimidin-2-yl]amino]-3-methoxy-phenyl]-1-piperidyl]ethanone] here?
The IC50 was 96 nM.

`COc1cc(N2CCN(C(=O)[C@@H](N)C(C)C)CC2)ccc1Nc1ncc(Cl)c(-c2cnc3ccccn23)n1` [Example 24.6, (2S)-2-amino-1-[4-[4-[(5-chloro-4-imidazo[1,2-a]pyridin-3-yl-pyrimidin-2-yl)amino]-3-methoxy-phenyl]piperazin-1-yl]-3-methyl-butan-1-one] was tested. Which IC50 did it give?
Its IC50 is 6 nM.

Which IC50 does the source give for `COc1cc(N(CCO)CCO)ccc1Nc1ncc(Cl)c(-c2cnc3c(F)cccn23)n1` [Example 223, 2-[4-[[5-chloro-4-(8-fluoroimidazo[1,2-a]pyridin-3-yl)pyrimidin-2-yl]amino]-N-(2-hydroxyethyl)-3-methoxy-anilino]ethanol] here?
The IC50 was 6 nM.

`COc1cc(CC(=O)N2CC[C@H](O)C2)ccc1Nc1ncc(Cl)c(-c2cnc3ccccn23)n1` [Example 38, 2-[4-[(5-chloro-4-imidazo[1,2-a]pyridin-3-yl-pyrimidin-2-yl)amino]-3-methoxy-phenyl]-1-[(3S)-3-hydroxypyrrolidin-1-yl]ethanone] was tested. Which IC50 did it give?
Its IC50 is 44 nM.

For `COc1cc(N2CCNCC2)ccc1Nc1ncc(Cl)c(-c2cnc3ccc(C#N)cn23)n1` [Example 266, 3-[5-chloro-2-(2-methoxy-4-piperazin-1-yl-anilino)pyrimidin-4-yl]imidazo[1,2-a]pyridine-6-carbonitrile], which IC50 is on record?
Its IC50 is 29 nM.

`COc1cc(N2CCN(C(C)(C)CO)CC2)ccc1Nc1ncc(C)c(-c2cnc3cc(C)ccn23)n1` [Example 262, 2-[4-[3-methoxy-4-[[5-methyl-4-(7-methylimidazo[1,2-a]pyridin-3-yl)pyrimidin-2-yl]amino]phenyl]piperazin-1-yl]-2-methyl-propan-1-ol] was tested. Which IC50 did it give?
The IC50 was 39 nM.

With `COc1cc(N2CCN(C(=O)[C@@H](C)O)CC2)ccc1Nc1ncc(Cl)c(-c2cnc3c(F)cc(F)cn23)n1` [Example 256, (2R)-1-[4-[4-[[5-chloro-4-(6,8-difluoroimidazo[1,2-a]pyridin-3-yl)pyrimidin-2-yl]amino]-3-methoxy-phenyl]piperazin-1-yl]-2-hydroxy-propan-1-one] as the molecule, how does the IC50 read?
The IC50 was 5 nM.

With `COc1cc(N2CC[C@H](O)C2)ccc1Nc1ncc(Cl)c(-c2cnc3ccccn23)n1` [Example 3.47, (3S)-1-[4-[(5-chloro-4-imidazo[1,2-a]pyridin-3-yl-pyrimidin-2-yl)amino]-3-methoxy-phenyl]pyrrolidin-3-ol] as the molecule, how does the IC50 read?
Its IC50 is 32 nM.

`COc1cc(N2CCN(CCO)CC2)ccc1Nc1ncc(OC)c(-c2cnc3ccccn23)n1` [Example 95, 2-[4-[4-[(4-imidazo[1,2-a]pyridin-3-yl-5-methoxy-pyrimidin-2-yl)amino]-3-methoxy-phenyl]piperazin-1-yl]ethanol] was tested. Which IC50 did it give?
Its IC50 is 60 nM.

With `CNC(=O)CN(C)c1ccc(Nc2ncc(Cl)c(-c3cnc4c(F)cccn34)n2)c(OC)c1` [Example 226, 2-[4-[[5-chloro-4-(8-fluoroimidazo[1,2-a]pyridin-3-yl)pyrimidin-2-yl]amino]-3-methoxy-N-methyl-anilino]-N-methyl-acetamide] as the molecule, how does the IC50 read?
Its IC50 is 33 nM.

`COc1cc(N2CCN(C(C)=O)CC2)ccc1Nc1ncc(F)c(-c2cnc3ccccn23)n1` [Example 72, 1-[4-[4-[(5-fluoro-4-imidazo[1,2-a]pyridin-3-yl-pyrimidin-2-yl)amino]-3-methoxy-phenyl]piperazin-1-yl]ethanone] was tested. Which IC50 did it give?
The IC50 was 96 nM.
